From patent publication US11072638B2, “Immunostimulating peptides” (AIMVION A/S, priority 2016, dated 2021)
Bridge positions count the residues as written; N and C are the ends. Ends that are not written are not given here. I, II: the chains in the order shown.

How the values were obtained:
[1] = tested on: THP-1 cells; assay: IL-6 levels in LPS-stimulated THP-1 cells, 6 h (Example 1); type: cell-based, human; conditions: for % IL-6 secretion level compared to LPS-stimulated control: THP-1, 1 μg/μl LPS for 6 h, + above, − below LPS-only control (100%); for Release of cytokines, including pro-inflammatory cytokines such as IL-6, TNF-alpha, and IL-8: pre-treatment of cells with peptide
Description: The modulatory function of peptides SG #4, SG #8, SG #13, and SG #14 on the expression levels of IL-6 in the human acute monocytic leukaemia cell line THP-1 was examined. THP-1 cells were maintained in RPMI 1640 supplemented with 10% FBS, 100 U/ml penicillin, 100 μg/ml streptomycin and 2 mM L-glutamine at 37° C. in a 5% CO2 incubator. THP-1 cells are known to induce IL-6, TNFα, IL-10 and IL-8 mRNA and protein in response to lipopolysaccharide (LPS) treatment. THP-1 cells were left untreated or incubated with 0 uM, 7.5 μM, 15 μM, 30 μM, 60 μM or 100 μm of each of the peptides, and stimulated with […] LPS for 6 h, based on previous analyses to find the optimal dose and incubation times.
(−) inhibition indicates percentage (%) of inhibition as compared to only LPS treated samples (arbitrarily set at 100%).

[2] = tested on: female BALB/c mice; assay: Anti-ovalbumin IgG1 ELISA after in vivo immunization of mice (Example 3); conditions: s.c. day 1 and day 14, 5 μg SG#4 + 50/25 μg ovalbumin per animal, serum at day 21
Source text: Chicken ovalbumin has been used to trigger T cell activation in immunology studies. Ovalbumin immunized mice produce anti-OVA antibodies predominantly of the IgG1 and IgE isotypes that mediate tissue-specific effector functions in multiple mouse models. Thus, it is often desirable to measure anti-OVA antibody levels in the plasma or serum to determine the effectiveness of the immunization/induction of a TH2-mediated immune response. Here, we tested the effectiveness of the SG #4 peptide in inducing of a TH2-mediated immune response in female BALB/c mice. The study agents contained Ovalbumin alone, peptide construct SG #4 alone or ovalbumin in combination with SG #4. […]
An ELISA assay was carried out according to the manufacturer's protocol, as follows. […] This Goat Anti-mouse IgG1 was labeled with HRP, allowing quantification of the […]. Addition of the HRP Substrate 3,3′,5,5′-tetramethylbenzidine (TMB), following by Stop Solution produces a yellow colored product which was measured spectrophotometrically. […] 1 mL of the top standard concentration (250 pg/mL anti-ovalbumin IgG1 quantification) was prepared in 1× Assay Diluent A (1×AD) from the anti-ovalbumin IgG1 stock solution. […] Using computer reduction software, absorbance (linear y-axis) for standard versus concentration (linear x-axis) is plotted and data is fitted with a quadratic equation. […]

| Sequence | % IL-6 secretion level compared to LPS-stimulated control ([1]; 7.5 μM peptide) | % IL-6 secretion level compared to LPS-stimulated control ([1]; 15 μM peptide) | % IL-6 secretion level compared to LPS-stimulated control ([1]; 30 μM peptide) | % IL-6 secretion level compared to LPS-stimulated control ([1]; 60 μM peptide) | % IL-6 secretion level compared to LPS-stimulated control ([1]; 100 μM peptide) | Release of cytokines, including pro-inflammatory cytokines such as IL-6, TNF-alpha, and IL-8 [1] | Induction of immune response (anti-ovalbumin IgG1) versus ovalbumin alone [2] |
| --- | --- | --- | --- | --- | --- | --- | --- |
| LQNKRGLGLSILLNEECGPGPGP (disulfide I:17-II:17 (inferred)) [SG#8] | +1.472% | +14.54% | +6.835% | +7.655% | +20.86% | promotes the release of cytokines |  |
| LQNRRGLGLSILLNC (disulfide I:15-II:15 (inferred)) [SG#4] | +12.99% | +20.76% | +38.19% | +36.39% | +13.27% | promotes the release of cytokines | significantly higher induction of immune response |
| LQNRRGLGLSILLNEE (Mutated sequence) [SG#13] | −5.765% | +6.907% | −5.286% | +8.616% | +36.98% | promotes the release of cytokines |  |
| LQNRRGLGLSILLNEELQNRRGL (Mutated sequence) [SG#14] | −2.981% | −0.4476% | +0.7403% | +28.52% | +15.21% | promotes the release of cytokines |  |
